Measured values published in patent US10239838B2, “Heteroaryl orexin receptor antagonists” (Merck Sharp & Dohme Corp., priority 2014, dated 2019).

Key:
hOX1R = hOX1R (Homo sapiens, UniProt O43613); experiment: FLIPR Ca2+ Flux Assay, orexin-1 receptor; assay type: cell-based; details: CHO cells expressing orexin-1 receptor; agonist 70 pM Ala-6,12 orexin-A
human orexin-2 receptor = human orexin-2 receptor (Homo sapiens (Human), UniProt O43614); experiment: FLIPR Ca2+ Flux Assay, orexin-2 receptor; assay type: cell-based; details: CHO cells expressing the human orexin-2 receptor; agonist 70 pM Ala-6,12 orexin-A; read-out: hOX2R FLIPR IC50
human orexin-2 receptor, sequence (O43614 whole entry): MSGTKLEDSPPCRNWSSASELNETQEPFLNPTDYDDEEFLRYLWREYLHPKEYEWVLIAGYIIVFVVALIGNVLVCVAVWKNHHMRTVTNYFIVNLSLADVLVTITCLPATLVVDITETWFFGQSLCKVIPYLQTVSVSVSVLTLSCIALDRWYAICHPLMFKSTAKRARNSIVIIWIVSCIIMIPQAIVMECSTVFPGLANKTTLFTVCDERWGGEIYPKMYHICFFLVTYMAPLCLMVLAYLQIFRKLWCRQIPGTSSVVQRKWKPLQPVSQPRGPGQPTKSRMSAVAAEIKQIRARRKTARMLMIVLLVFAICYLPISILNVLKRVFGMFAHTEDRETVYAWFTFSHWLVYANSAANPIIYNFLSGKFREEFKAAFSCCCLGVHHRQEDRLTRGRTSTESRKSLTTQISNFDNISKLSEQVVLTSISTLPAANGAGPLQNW
Experimental: In a typical experiment the OX1 and OX2 receptor antagonistic activity of the compounds of the present invention was determined in accordance with the following experimental method. For intracellular calcium measurements, Chinese hamster ovary (CHO) cells expressing the rat orexin-1 receptor or the human orexin-2 receptor, are grown in Iscove's modified DMEM containing 2 mM L-glutamine, […], 1% hypoxanthine-thymidine supplement, 100 U/ml penicillin, 100 μg/ml streptomycin and 10% heat-inactivated fetal calf serum (FCS). The cells are seeded at 20,000 cells/well into Becton-Dickinson black 384-well clear bottom sterile plates coated with poly-D-lysine. All reagents were from GIBCO-Invitrogen Corp. The seeded plates are incubated overnight at 37° C. and 5% CO2. Ala-6,12 human orexin-A as the agonist is prepared as a 1 mM stock solution in 1% bovine serum albumin (BSA) and diluted in assay buffer (HBSS containing 20 mM HEPES, 0.1% BSA and 2.5 mM probenecid, pH7.4) for use in the assay at a final concentration of 70 pM. Test compounds are prepared as 10 mM stock solution in DMSO, then diluted in 384-well plates, first in DMSO, then assay buffer. On the day of the assay, cells are washed 3 times with 100 μl assay buffer and then incubated for 60 min (37° C., 5% CO2) in 60 μl assay buffer containing 1 μM Fluo-4 AM ester, 0.02% pluronic acid, and 1% BSA. The dye loading solution is then aspirated and cells are washed 3 times with 100 μl assay buffer. 30 μl of that same buffer is left in each well. Within the Fluorescent Imaging Plate Reader (FLIPR, Molecular Devices), test compounds are added to the plate in a volume of 25 μl, incubated for 5 min and finally 25 μl of agonist is added. Fluorescence is measured for each well at 1 second intervals for 5 minutes and the height of each fluorescence peak is compared to the height of the fluorescence peak induced by 70 pM Ala-6,12 orexin-A with buffer in place of antagonist. […] Alternatively, compound potency can be assessed by a radioligand binding assay (described in Bergman et. al. Bioorg. Med. Chem. Lett. 2008, 18, 1425-1430) in which the inhibition constant (Ki) is determined in membranes prepared from CHO cells expressing either the OX1 or OX2 receptor. The intrinsic orexin receptor antagonist activity of a compound which may be used in the present invention may be determined by these assays.

SMILES	IC50 (hOX1R)	IC50 (human orexin-2 receptor)
CCN(CCc1cc(C(C)(C)O)ccn1)C(=O)c1ccccc1-n1nccn1 [Example 1, N-Ethyl-N-{2-[4-(1-hydroxy-1-methylethyl)pyridin-2-yl]ethyl}-2-(2H-1,2,3-triazol-2-yl)benzamide]	> 10000 nM	69 nM
CCN(CCc1cccc(C(C)(C)O)n1)C(=O)c1ccccc1-n1nccn1 [Example 4, N-Ethyl-N-{2-[6-(1-hydroxy-1-methylethyl)pyridin-2-yl]ethyl}-2-(2H-1,2,3-triazol-2-yl)benzamide]		15 nM
CCN(CCc1cccc(C(C)(C)O)n1)C(=O)c1cccnc1OC(C)C [Example 5, N-Ethyl-N-{2-[6-(1-hydroxy-1-methylethyl)pyridin-2-yl]ethyl}-2-(1-methylethoxy)pyridine-3-carboxamide]	> 10000 nM	133 nM
CCOc1ncccc1C(=O)N(CC)CCc1cccc(C(C)(C)O)n1 [Example 6, 2-ethoxy-N-ethyl-N-{2-[6-(1-hydroxy-1-methylethyl)pyridin-2-yl]ethyl}pyridine-3-carboxamide]	> 10000 nM	206 nM
CCN(CCc1cccc(C(C)(C)O)n1)C(=O)c1ccccc1OC(F)F [Example 7, 2-(difluoromethoxy)-N-ethyl-N-{2-[6-(1-hydroxy-1-methylethyl)pyridin-2-yl]ethyl}benzamide]	> 10000 nM	196 nM
CCN(CCc1cccc(C(C)(C)O)n1)C(=O)c1ccccc1OC(F)(F)F [Example 8, N-ethyl-N-{2-[6-(1-hydroxy-1-methylethyl)pyridin-2-yl]ethyl}-2-(trifluoromethoxy)benzamide]	> 10000 nM	32 nM
CCN(CCc1cccc(C(C)(C)O)n1)C(=O)c1cccnc1OCC(F)F [Example 9, 2-(2,2-difluoroethoxy)-N-ethyl-N-{2-[6-(1-hydroxy-1-methylethyl)pyridin-2-yl]ethyl}pyridine-3-carboxamide]	> 10000 nM	95 nM
CCN(CCc1cccc(C(C)(C)O)n1)C(=O)c1cccnc1OCC(F)(F)F [Example 10, N-ethyl-N-{2-[6-(1-hydroxy-1-methylethyl)pyridin-2-yl]ethyl}-2-(2,2,2-trifluoroethoxy)pyridine-3-carboxamide]	> 10000 nM	69 nM
CCOc1ccccc1C(=O)N(CC)CCc1cccc(C(C)(C)O)n1 [Example 11, 2-ethoxy-N-ethyl-N-{2-[6-(1-hydroxy-1-methylethyl)pyridin-2-yl]ethyl}benzamide]	> 10000 nM	76 nM
CCN(CCc1cccc(C(C)(C)O)n1)C(=O)c1ccccc1-n1cccn1 [Example 12, N-ethyl-N-{2-[6-(1-hydroxy-1-methylethyl)pyridin-2-yl]ethyl}-2-(1H-pyrazol-1-yl)benzamide]	> 10000 nM	66 nM
CCN(CCc1cccc(C(C)(C)O)n1)C(=O)c1ccc(F)cc1-n1nccn1 [Example 13, N-ethyl-4-fluoro-N-{2-[6-(1-hydroxy-1-methylethyl)pyridin-2-yl]ethyl}-2-(2H-1,2,3-triazol-2-yl)benzamide]	> 10000 nM	8 nM
CCN(CCc1cccc(C(C)(C)O)n1)C(=O)c1cccnc1-c1ccccc1 [Example 14, N-ethyl-N-{2-[6-(1-hydroxy-1-methylethyl)pyridin-2-yl]ethyl}-2-phenylpyridine-3-carboxamide]	> 10000 nM	103 nM
CCN(CCc1cccc(C(C)(C)O)n1)C(=O)c1ccccc1C1CC1 [Example 15, 2-cyclopropyl-N-ethyl-N-{2-[6-(1-hydroxy-1-methylethyl)pyridin-2-yl]ethyl}benzamide]	> 10000 nM	43 nM
CCCc1ccccc1C(=O)N(CC)CCc1cccc(C(C)(C)O)n1 [Example 16, N-ethyl-N-(2-(6-(2-hydroxypropan-2-yl)pyridin-2-yl)ethyl)-2-propylbenzamide]	> 10000 nM	104 nM
CCN(CCc1cccc(C(C)(C)O)n1)C(=O)c1ccccc1OCC(F)(F)F [Example 17, N-ethyl-N-(2-(6-(2-hydroxypropan-2-yl)pyridin-2-yl)ethyl)-2-(2,2,2-trifluoroethoxy)benzamide]	> 10000 nM	261 nM
CCN(CCc1cccc(C(C)(C)O)n1)C(=O)c1ccccc1CC(F)(F)F [Example 18, N-ethyl-N-(2-(6-(2-hydroxypropan-2-yl)pyridin-2-yl)ethyl)-2-(2,2,2-trifluoroethyl)benzamide]	> 10000 nM	

SMILES	IC50 (hOX1R)	IC50 (human orexin-2 receptor)
CCN(CCc1cccc(C(C)(C)O)n1)C(=O)c1ccc(OC)nc1C1CC1 [Example 19, 2-cyclopropyl-N-ethyl-N-(2-(6-(2-hydroxypropan-2-yl)pyridin-2-yl)ethyl)-6-methoxynicotinamide]		16 nM
CCN(CCc1cccc(C(C)(C)O)n1)C(=O)c1ccccc1OCC(F)F [Example 20, 2-(2,2-difluoroethoxy)-N-ethyl-N-(2-(6-(2-hydroxypropan-2-yl)pyridin-2-yl)ethyl)benzamide]	> 10000 nM	136 nM
CCN(CCc1cccc(C(C)(C)O)n1)C(=O)c1ccccc1CC(F)F [Example 23, 2-(2,2-difluoroethyl)-N-ethyl-N-(2-(6-(2-hydroxypropan-2-yl)pyridin-2-yl)ethyl)benzamide]	> 10000 nM	142 nM
CCN(CCc1cccc(C(C)(C)O)n1)C(=O)c1cccnc1-n1cccn1 [Example 24, N-ethyl-N-(2-(6-(2-hydroxypropan-2-yl)pyridin-2-yl)ethyl)-2-(1H-pyrazol-1-yl)nicotinamide]	> 10000 nM	36 nM
CCN(CCc1cccc(C(C)(C)O)n1)C(=O)c1ccccc1C1CCC1 [Example 25, 2-cyclobutyl-N-ethyl-N-(2-(6-(2-hydroxypropan-2-yl)pyridin-2-yl)ethyl)benzamide]		34 nM
CCN(CCc1cccc(C(C)(C)O)n1)C(=O)c1ncccc1-c1ccccc1 [Example 26, N-ethyl-N-(2-(6-(2-hydroxypropan-2-yl)pyridin-2-yl)ethyl)-3-phenylpicolinamide]	> 10000 nM	452 nM
CCN(CCc1cccc(C(C)(C)O)n1)C(=O)c1ccccc1N1CCCC1 [Example 28, N-ethyl-N-(2-(6-(2-hydroxypropan-2-yl)pyridin-2-yl)ethyl)-2-(pyrrolidin-1-yl)benzamide]	> 10000 nM	88 nM
CCN(CCc1cccc(C(C)(C)O)n1)C(=O)c1ccccc1-n1ncnn1 [Example 29, N-ethyl-N-(2-(6-(2-hydroxypropan-2-yl)pyridin-2-yl)ethyl)-2-(2H-tetrazol-2-yl)benzamide]	> 10000 nM	146 nM
CCN(CCc1cccc(C(C)(C)O)n1)C(=O)c1ccccc1C1CC1(F)F (stereo not drawn) [Example 31, 2-(2,2-difluorocyclopropyl)-N-ethyl-N-(2-(6-(2-hydroxypropan-2-yl)pyridin-2-yl)ethyl)benzamide]	9040 nM	14 nM
CCN(CCc1cccc(C(C)(C)O)n1)C(=O)c1ccccc1-c1ncccn1 [Example 32, N-Ethyl-N-(2-(6-(2-hydroxypropan-2-yl)pyridin-2-yl)ethyl)-2-(pyrimidin-2-yl)benzamide]	7360 nM	16 nM
CCN(CCc1ccc(C(C)(C)O)cn1)C(=O)c1ccccc1-n1nccn1 [Example 35, N-Ethyl-N-{2-[5-(1-hydroxy-1-methylethyl)pyridin-2-yl]ethyl}-2-(2H-1,2,3-triazol-2-yl)benzamide]	> 10000 nM	50 nM
CCN(CCc1ccnc(C(C)(C)O)c1)C(=O)c1ccccc1-n1nccn1 [Example 37, N-Ethyl-N-{2-[2-(1-hydroxy-1-methylethyl)pyridin-4-yl]ethyl}-2-(2H-1,2,3-triazol-2-yl)benzamide]	> 10000 nM	124 nM
CCN(CCc1cncc(C(C)(C)O)c1)C(=O)c1ccccc1-n1nccn1 [Example 38, N-Ethyl-N-{2-[5-(1-hydroxy-1-methylethyl)pyridin-3-yl]ethyl}-2-(2H-1,2,3-triazol-2-yl)benzamide]	> 10000 nM	152 nM
CCN(CCc1cncc(C(C)(C)O)n1)C(=O)c1ccccc1-n1nccn1 [Example 39, N-Ethyl-N-{2-[6-(1-hydroxy-1-methylethyl)pyrazin-2-yl]ethyl}-2-(2H-1,2,3-triazol-2-yl)benzamide]	> 10000 nM	68 nM
CCCc1ccccc1C(=O)N(CC)CCc1ccc(C(C)(C)O)cn1 [Example 52, N-ethyl-N-{2-[5-(1-hydroxy-1-methylethyl)pyridin-2-yl]ethyl}-2-propylbenzamide]	> 10000 nM	
